From article PMC12005787, “Synthetic Lethality of SHP2 and XIAP Suppresses Proliferation and Metastasis in KRAS‐mutant Nonsmall Cell Lung Cancer” (Advanced Science, 2025)
Read-outs that look alike come from different tables or passages of the source.

What was measured:
NCI‐H2122 and A549 cells = assay: Intracellular ATP assay; type: cell-based, human; conditions: monolayer 24 h and 3D culture 48 h
Procedure: (§1) supplies are listed in Supplementary Table S5. […]
(§2) For the adherent cell viability assay, cells in the logarithmic growth phase were seeded in 96-well culture plates at a density of 5×103 well-1 and incubated overnight. Diluted compounds or DMSO were added, or specific treatments were incubated at 37 °C and 5% CO2 for 24 h or 48 h. Cell viability was determined using CCK-8 or CellLightTM Cell Viability Assay Kit, according to the manufacturer's protocol. The luminescence signals of the treated samples were normalized to those of the DMSO group.
For spherical cell viability assays, cells in the logarithmic growth phase were inoculated ata density of 4×10^3 well-1 into 96-well spherical cell microplates and incubated at 37 °C, 5% CO2 for 24 h or 48 h. Cell viability was measured using the CellTiter-Glo® Luminescent Cell Viability 3D Cell Viability Assay Kit, according to the manufacturer’s protocol. The remaining steps were the same as those described above. […]

ΔSHP2^K325A = target: T1, ΔSHP2^K325A (Homo sapiens, UniProt Q06124, K325A); assay: PTP activity assay of K325A mutant; type: biochemical
T1 construct: His‐ΔSHP2, encompassing the peptide from amino acids 205–593 retaining PTP activity; His; made in house; host or cells: E. coli BL21
T1 sequence (Q06124 205-593 K325A): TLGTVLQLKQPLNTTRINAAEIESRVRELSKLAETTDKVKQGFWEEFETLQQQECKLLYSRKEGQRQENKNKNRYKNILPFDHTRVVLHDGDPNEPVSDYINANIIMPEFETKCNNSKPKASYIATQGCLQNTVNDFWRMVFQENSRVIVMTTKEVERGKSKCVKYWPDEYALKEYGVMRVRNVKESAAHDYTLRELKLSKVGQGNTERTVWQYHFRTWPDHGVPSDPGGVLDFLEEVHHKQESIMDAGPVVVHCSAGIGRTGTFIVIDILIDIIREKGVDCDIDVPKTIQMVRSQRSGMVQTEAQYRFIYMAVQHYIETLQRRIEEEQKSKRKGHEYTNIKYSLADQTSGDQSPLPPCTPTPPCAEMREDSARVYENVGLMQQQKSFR
Procedure: Catalytic activity screening methods for PTPs using candidate compounds were performed as previously described.^[ [77] ^] In brief, soluble fusion PTP proteins, His‐ΔSHP2, encompassing the peptide from amino acids 205–593 retaining PTP activity, His‐ΔSHP2^K325A, His‐ΔSHP1, encompassing the peptide from amino acids 202–595 retaining PTP activity, His‐PTP1B, His‐HePTP, His‐VHR, and His‐TCPTP were cloned, expressed, and purified in E. coli. After determining protein concentration using bicinchoninic acid (BCA) assay kit, 1 µg fusion protein, 10 µM library compound were added in 100 µL reaction mixture (55 mM 4‐(2‐hydroxyethyl)‐1‐piperazineethanesulfonic acid [HEPES], 100 mM sodium chloride [NaCl], 0.5 mM ethylenediaminetetraacetic acid [EDTA], 1 mM dithiothreitol [DTT], 0.01% Triton X‐100, 0.002% bovine serum albumin [BSA], and 0.1% dimethyl sulfoxide [DMSO]) and incubated at 37 °C for 30 min in the dark, with Na3VO4 as positive control. The detection substrate DiFMUP (50 µM) was promptly added to each reaction and functioned at 37 °C for 30 min in the dark. The fluorescence intensity was then measured using Multimode Plate Reader (λa = 358 nm, λe = 455 nm, PerkinElmer, USA).
A single‐point mutation assay of the pET32a‐ΔSHP2 plasmid was performed using the QuickMutation Site‐Directed Mutagenesis Kit (Beyotime, Shanghai, China). […]

His‐ΔSHP2 = target: T2, His‐ΔSHP2 (Homo sapiens, UniProt Q06124); assay: Reversibility of embelin-SHP2 binding (dialysis); type: biochemical
T2 construct: His‐ΔSHP2, encompassing the peptide from amino acids 205–593 retaining PTP activity; His; made in house; host or cells: E. coli
T2 sequence (Q06124 205-593): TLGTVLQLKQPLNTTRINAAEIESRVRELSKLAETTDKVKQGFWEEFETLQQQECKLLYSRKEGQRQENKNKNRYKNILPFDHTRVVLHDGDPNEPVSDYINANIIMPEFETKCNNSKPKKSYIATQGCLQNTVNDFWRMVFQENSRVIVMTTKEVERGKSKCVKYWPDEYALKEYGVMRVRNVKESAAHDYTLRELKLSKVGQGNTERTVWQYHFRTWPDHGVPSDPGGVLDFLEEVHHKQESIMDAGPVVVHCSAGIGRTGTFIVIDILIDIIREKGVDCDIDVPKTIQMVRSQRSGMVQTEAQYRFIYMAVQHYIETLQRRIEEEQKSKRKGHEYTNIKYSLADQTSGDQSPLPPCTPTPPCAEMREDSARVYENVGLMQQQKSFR
Procedure: To test whether embelin and SHP2 were reversibly bound, the purified His‐ΔSHP2 fusion protein was dialyzed overnight in dialysis buffer (10 mM HEPES, 0.5 M NaCl, 1 mM TCEP, and 10% glycerol, pH 7.5), and the protein activity was detected by DiFMUP. After incubating embelin with dialyzed protein at 37 °C for 30 min, the mixed solution was dialyzed overnight or ultrafiltered, with DMSO as a control, and protein activity was detected by DiFMUP to determine the mode of protein‐compound binding.

NCI-H2122 cells = assay: Cell viability assay (CCK-8); type: cell-based; conditions: Homo sapiens
Procedure: as §1
(§3) KRAS-mutant and wild-type cells are listed in Supplementary Table S7.
as §2, with “group. […]” for “group.”

NCI-H1975 cells = assay: Cell viability assay (CCK-8); type: cell-based; conditions: Homo sapiens, NCI-H1975, 24 h, NCI-H1975, RAS-wild type, EGFR L858R/T790M
Procedure: as §1, §3
as §2, with “group. […]” for “group.”

HeLa cells = assay: Cell viability assay (CCK-8); type: cell-based; conditions: Homo sapiens
Procedure: as §1, §3
as §2, with “group. […]” for “group.”

HCC44 cells = assay: Cell viability assay (CCK-8); type: cell-based; conditions: Homo sapiens
Procedure: as §1, §3
as §2, with “group. […]” for “group.”

NCI-H1299 cells = assay: Cell viability assay (CCK-8); type: cell-based; conditions: Homo sapiens
Procedure: as §1, §3
as §2, with “group. […]” for “group.”

[1] = system: cancer cell lines that contain different RAS mutations; assay: Average sensitivity of cancer cell line panel by RAS mutation status; type: cell-based
Procedure: Inhibitory effects of embelin on KRAS-mutant and wild-type cells are listed in Supplementary Table S7.
as §2, with “group. […]” for “group.”

inhibitory effect on activity of ΔSHP2^K325A versus wild-type ΔSHP2 (ΔSHP2^K325A): notably diminished the inhibitory effect
mode of binding to SHP2 (dialysis) (His‐ΔSHP2): noncovalent
IC50 (NCI-H2122 cells; NCI-H2122, 48 h, read-out: IC50 at 48 h): 4.03 ± 0.1 µM
IC50 (NCI-H2122 cells; NCI-H2122, KRAS G12C, 24 h, read-out: IC50 at 24 h): 4.9 ± 0.1 µM
IC50 (NCI-H1975 cells): 7.4 ± 0.83 µM
IC50 (HeLa cells; 48 h, read-out: IC50 at 48 h): 13.4 ± 0.6 µM
IC50 (HeLa cells; RAS-wild type, 24 h, read-out: IC50 at 24 h): 16.5 ± 0.2 µM
IC50 (HCC44 cells; HCC44, 48 h, read-out: IC50 at 48 h): 6.52 ± 0.4 µM
IC50 (HCC44 cells; HCC44, KRAS G12C, 24 h, read-out: IC50 at 24 h): 27.3 ± 0.44 µM
IC50 (NCI-H1299 cells; NCI-H1299, 48 h, read-out: IC50 at 48 h): 13.1 ± 0.6 µM
IC50 (NCI-H1299 cells; NCI-H1299, NRAS, 24 h, read-out: IC50 at 24 h): 19.6 ± 1 µM
IC50 ([1]; HRAS mutants): 44 µM
IC50 ([1]; NRAS mutant strain): 19.6 µM
IC50 ([1]; RAS wild‐type cell lines): 30.8 µM
IC50 ([1]; cell lines with KRAS mutations): 16.9 µM
Compound: CCCCCCCCCCCC1=C(O)C(=O)C=C(O)C1=O [Embelin]
effect on intracellular ATP (NCI‐H2122 and A549 cells): significantly inhibited ATP release
